# Laboratory results reported in the supplement of paper PMC10307832.
# Legend:
# Assay in all cases: relative viability (nuclei count vs DMSO), 5 days (fraction); higher = more cells survive
# ChaGo-K-1 = test system: ChaGo-K-1
# Outline: (§1)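 The day after seeding in 1536-well plates, lung cancer cell lines were treated by pin tool with a single drug, or with a fixed anchor-drug dose together with five library-drug doses (not always all listed) in √10 steps. After 5 days, a combined fix-and-stain solution (final 0.05% Triton X-100, 1% formaldehyde, 1 ug/ml Hoechst) was added. Nuclei counted on 4× images gave relative viability as treated counts over vehicle counts, reported as the median of duplicate plates.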
# HCC-78 = test system: HCC-78
# Outline: as §1
# HOP-62 = test system: HOP-62
# Outline: as §1
# LCLC-97TM1 = test system: LCLC-97TM1
# Outline: as §1
# LK-2 = test system: LK-2
# Outline: as §1
# NCI-H1355 = test system: NCI-H1355
# Outline: as §1
# NCI-H1623 = test system: NCI-H1623
# Outline: as §1
# NCI-H1650 = test system: NCI-H1650
# Outline: as §1
# NCI-H1703 = test system: NCI-H1703
# Outline: as §1
# NCI-H1734 = test system: NCI-H1734
# Outline: as §1
# NCI-H1755 = test system: NCI-H1755
# Outline: as §1
# NCI-H1944 = test system: NCI-H1944
# Outline: as §1
# NCI-H1975 = test system: NCI-H1975
# Outline: as §1
# NCI-H1993 = test system: NCI-H1993
# Outline: as §1
# NCI-H2126 = test system: NCI-H2126
# Outline: as §1
# NCI-H2228 = test system: NCI-H2228
# Outline: as §1
# NCI-H2342 = test system: NCI-H2342
# Outline: as §1
# NCI-H23 = test system: NCI-H23
# Outline: as §1
# NCI-H2405 = test system: NCI-H2405
# Outline: as §1
# NCI-H358 = test system: NCI-H358
# Outline: as §1
# NCI-H460 = test system: NCI-H460
# Outline: as §1
# NCI-H596 = test system: NCI-H596
# Outline: as §1
# NCI-H727 = test system: NCI-H727
# Outline: as §1
# PC-3 [JPC-3] = test system: PC-3 [JPC-3]
# Outline: as §1
structure (smiles),measurement,setting,value
Nc1cccc2c1CN(C1CCC(=O)NC1=O)C2=O (stereo not drawn) [Lenalidomide] + COc1cc2c(Oc3ccc(NC(=O)C4(C(=O)Nc5ccc(F)cc5)CC4)cc3F)ccnc2cc1OCCCN1CCOCC1 [Foretinib] (partner 0.25 µM),relative viability,ChaGo-K-1; first compound 0.253 µM,0.949
same,relative viability,ChaGo-K-1; first compound 0.8 µM,0.873
same,relative viability,ChaGo-K-1; first compound 2.53 µM,0.975
same,relative viability,ChaGo-K-1; first compound 8 µM,1.06
same,relative viability,HCC-78; first compound 0.253 µM,0.673
same,relative viability,HCC-78; first compound 0.8 µM,0.526
same,relative viability,HCC-78; first compound 2.53 µM,0.516
same,relative viability,HCC-78; first compound 8 µM,0.514
same,relative viability,HOP-62; first compound 0.253 µM,0.989
same,relative viability,HOP-62; first compound 0.8 µM,1.03
same,relative viability,HOP-62; first compound 2.53 µM,1.28
same,relative viability,HOP-62; first compound 8 µM,1.2
same,relative viability,LCLC-97TM1; first compound 0.253 µM,0.906
same,relative viability,LCLC-97TM1; first compound 0.8 µM,0.991
same,relative viability,LCLC-97TM1; first compound 2.53 µM,1
same,relative viability,LCLC-97TM1; first compound 8 µM,0.947
same,relative viability,LK-2; first compound 0.253 µM,1.57
same,relative viability,LK-2; first compound 0.8 µM,1.17
same,relative viability,LK-2; first compound 2.53 µM,1.24
same,relative viability,LK-2; first compound 8 µM,0.847
same,relative viability,NCI-H1355; first compound 0.253 µM,0.973
same,relative viability,NCI-H1355; first compound 2.53 µM,0.901
same,relative viability,NCI-H1355; first compound 8 µM,0.808
same,relative viability,NCI-H1623; first compound 0.253 µM,0.858
same,relative viability,NCI-H1623; first compound 0.8 µM,0.784
same,relative viability,NCI-H1623; first compound 2.53 µM,0.862
same,relative viability,NCI-H1623; first compound 8 µM,0.71
same,relative viability,NCI-H1650; first compound 0.8 µM,1.46
same,relative viability,NCI-H1650; first compound 2.53 µM,1.18
same,relative viability,NCI-H1650; first compound 8 µM,1.37
same,relative viability,NCI-H1703; first compound 0.253 µM,0.328
same,relative viability,NCI-H1703; first compound 0.8 µM,0.348
same,relative viability,NCI-H1703; first compound 2.53 µM,0.403
same,relative viability,NCI-H1703; first compound 8 µM,0.426
same,relative viability,NCI-H1734; first compound 0.253 µM,0.894
same,relative viability,NCI-H1734; first compound 0.8 µM,0.776
same,relative viability,NCI-H1734; first compound 2.53 µM,0.932
same,relative viability,NCI-H1734; first compound 8 µM,0.809
same,relative viability,NCI-H1755; first compound 0.253 µM,0.915
same,relative viability,NCI-H1755; first compound 0.8 µM,0.904
same,relative viability,NCI-H1755; first compound 2.53 µM,0.886
same,relative viability,NCI-H1755; first compound 8 µM,0.782
same,relative viability,NCI-H1944; first compound 0.253 µM,0.871
same,relative viability,NCI-H1944; first compound 0.8 µM,0.905
same,relative viability,NCI-H1944; first compound 2.53 µM,0.911
same,relative viability,NCI-H1944; first compound 8 µM,0.848
same,relative viability,NCI-H1975; first compound 0.253 µM,0.942
same,relative viability,NCI-H1975; first compound 0.8 µM,0.823
same,relative viability,NCI-H1975; first compound 2.53 µM,1.07
same,relative viability,NCI-H1975; first compound 8 µM,1.14
same,relative viability,NCI-H1993; first compound 0.253 µM,0.739
same,relative viability,NCI-H1993; first compound 0.8 µM,0.658
same,relative viability,NCI-H1993; first compound 2.53 µM,0.775
same,relative viability,NCI-H1993; first compound 8 µM,0.707
same,relative viability,NCI-H2126; first compound 0.253 µM,1.33
same,relative viability,NCI-H2126; first compound 0.8 µM,1.13
same,relative viability,NCI-H2126; first compound 2.53 µM,1.39
same,relative viability,NCI-H2126; first compound 8 µM,1.14
same,relative viability,NCI-H2228; first compound 0.253 µM,0.943
same,relative viability,NCI-H2228; first compound 0.8 µM,0.907
same,relative viability,NCI-H2228; first compound 2.53 µM,1.04
same,relative viability,NCI-H2228; first compound 8 µM,0.975
same,relative viability,NCI-H2342; first compound 0.253 µM,1.08
same,relative viability,NCI-H2342; first compound 0.8 µM,1.01
same,relative viability,NCI-H2342; first compound 2.53 µM,1.11
same,relative viability,NCI-H2342; first compound 8 µM,0.898
same,relative viability,NCI-H23; first compound 0.253 µM,0.926
same,relative viability,NCI-H23; first compound 0.8 µM,1.13
same,relative viability,NCI-H23; first compound 2.53 µM,0.847
same,relative viability,NCI-H23; first compound 8 µM,1.03
same,relative viability,NCI-H2405; first compound 0.253 µM,1.02
same,relative viability,NCI-H2405; first compound 0.8 µM,0.951
same,relative viability,NCI-H2405; first compound 2.53 µM,1.11
same,relative viability,NCI-H2405; first compound 8 µM,1.01
same,relative viability,NCI-H358; first compound 0.253 µM,0.47
same,relative viability,NCI-H358; first compound 0.8 µM,0.987
same,relative viability,NCI-H358; first compound 2.53 µM,0.791
same,relative viability,NCI-H358; first compound 8 µM,0.797
same,relative viability,NCI-H460; first compound 0.253 µM,0.964
same,relative viability,NCI-H460; first compound 0.8 µM,1.02
same,relative viability,NCI-H460; first compound 2.53 µM,1.14
same,relative viability,NCI-H460; first compound 8 µM,1.07
same,relative viability,NCI-H596; first compound 0.253 µM,0.799
same,relative viability,NCI-H596; first compound 2.53 µM,0.908
same,relative viability,NCI-H596; first compound 8 µM,0.789
same,relative viability,NCI-H727; first compound 0.253 µM,0.904
same,relative viability,NCI-H727; first compound 0.8 µM,0.929
same,relative viability,NCI-H727; first compound 2.53 µM,1
same,relative viability,NCI-H727; first compound 8 µM,1.05
same,relative viability,PC-3 [JPC-3]; first compound 0.253 µM,1.06
same,relative viability,PC-3 [JPC-3]; first compound 0.8 µM,0.974
same,relative viability,PC-3 [JPC-3]; first compound 2.53 µM,1.17
same,relative viability,PC-3 [JPC-3]; first compound 8 µM,1.08
